Source: patent US8822517B2, “Arylosulfonamides for the treatment of CNS diseases” (Adamed SP. Z O.O., priority 2010, dated 2014)
Like-named read-outs stand apart in the source and are kept apart here.

Key:
[1] = molecular target: T1, adrenergic α1A receptor (Homo sapiens, UniProt P35348); assay: Cellular functional assay, adrenergic α1A receptor (agonism/antagonism); type: cell-based; conditions: for activation at 1 µM: read-out: α1A -ag [%]; for inhibition at 1 µM: read-out: α1A -antag. [%]
T1 sequence (P35348 1-466): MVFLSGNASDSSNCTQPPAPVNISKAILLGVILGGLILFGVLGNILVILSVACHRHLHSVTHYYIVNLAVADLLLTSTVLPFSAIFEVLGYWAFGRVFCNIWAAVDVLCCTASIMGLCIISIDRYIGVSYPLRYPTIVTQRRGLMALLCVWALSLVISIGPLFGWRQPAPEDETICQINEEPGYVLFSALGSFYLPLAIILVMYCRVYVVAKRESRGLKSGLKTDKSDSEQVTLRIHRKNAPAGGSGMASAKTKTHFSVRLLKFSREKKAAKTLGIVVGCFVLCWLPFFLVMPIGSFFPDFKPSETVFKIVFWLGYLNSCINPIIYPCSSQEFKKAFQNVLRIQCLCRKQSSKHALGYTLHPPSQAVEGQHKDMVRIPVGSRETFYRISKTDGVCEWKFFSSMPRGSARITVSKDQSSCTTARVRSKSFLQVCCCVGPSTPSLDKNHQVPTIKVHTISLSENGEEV
Description: […]. The compounds were tested at the concentration of 1×10^−6M.
Conditions and methodology (by reference to the literature) of cellular functional assays are given in Table 13 and the tests results for representative compounds are given in Table 14 (dopaminergic receptor D2), in Table 15 (dopaminergic receptor D3), in Table 16 (serotoninergic receptor 5-HT1A), in Table 17 (serotoninergic receptor 5-HT2A), in Table 18 (serotoninergic receptor 5-HT6), in Table 19 (serotoninergic receptor 5-HT7), in Table 20 (adrenergic α1 receptor), in Table 21 (adrenergic α2C receptor), in Table 22 (histaminergic H1 receptor) and in Table 23 (serotoninergic 5-HT2C receptor). In the Tables ag refers to agonism, and antag to antagonism).

[2] = molecular target: serotoninergic 5-HT7 receptor (Homo sapiens, UniProt P34969); assay: Binding assay 5-HT7 (h), [3H]LSD, CHO cells; set-up: expressed in transfected cells; host or cells: CHO cells; conditions: read-out: 5-HT7
Summary of the method: (§1)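 Single-concentration test (1×10^−6 M). Total and non-specific binding were counted by scintillation, and their difference defines specific binding.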

[3] = molecular target: dopaminergic D3 receptor (Homo sapiens, UniProt P35462); assay: Cellular functional assay, dopaminergic D3 receptor (agonism/antagonism); type: cell-based
Description: (§2) The compounds were tested at the concentration of 1×10^−6M.
(§3) In the Tables ag refers to agonism, and antag to antagonism).

[4] = molecular target: T2, histaminergic H1 receptor (Homo sapiens, UniProt P35367); assay: Binding assay H1 (h), [3H]pyrilamine, HEK-293 cells; set-up: expressed in transfected cells; host or cells: HEK-293 cells; conditions: read-out: H1 [%]
Summary of the method: as §1

[5] = molecular target: T3, muscarinic M3 receptor (Homo sapiens, UniProt P20309); assay: Binding assay M3 (h), [3H]4-DAMP, CHO cells; conditions: read-out: M3 [%]
T3 construct: expressed in transfected cells; host or cells: CHO cells
Summary of the method: as §1

[6] = molecular target: serotoninergic 5-HT2A receptor (Homo sapiens, UniProt P28223); assay: Cellular functional assay, serotoninergic 5-HT2A receptor (agonism/antagonism); type: cell-based; conditions: for activation at 1 µM: read-out: 5-HT2A -ag [%]; for inhibition at 1 µM: read-out: 5-HT2A -antag [%]
Summary of the method: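 Human receptors tested in cell-based functional format for both agonist and antagonist modes. Single compound concentration of 1×10^−6M.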

[7] = molecular target: T2, histaminergic H1 receptor; assay: Cellular functional assay, histaminergic H1 receptor (agonism/antagonism); type: cell-based; conditions: for activation at 1 µM: read-out: H1 -ag [%]; for inhibition at 1 µM: read-out: H1 -antag. [%]
Description: as §2, §3

[8] = molecular target: dopaminergic D2 receptor (Homo sapiens, UniProt P14416); assay: Cellular functional assay, dopaminergic D2 receptor (agonism/antagonism); type: cell-based
Description: as §2, §3

[9] = molecular target: T4, serotoninergic receptor 5-HT2C (Homo sapiens, UniProt P28335); assay: Binding assay 5-HT2C (h), [3H]mesulergine, HEK-293 cells; conditions: read-out: 5-HT2C [%]
T4 construct: expressed in transfected cells; host or cells: HEK-293 cells
T4 sequence (P28335 33-458): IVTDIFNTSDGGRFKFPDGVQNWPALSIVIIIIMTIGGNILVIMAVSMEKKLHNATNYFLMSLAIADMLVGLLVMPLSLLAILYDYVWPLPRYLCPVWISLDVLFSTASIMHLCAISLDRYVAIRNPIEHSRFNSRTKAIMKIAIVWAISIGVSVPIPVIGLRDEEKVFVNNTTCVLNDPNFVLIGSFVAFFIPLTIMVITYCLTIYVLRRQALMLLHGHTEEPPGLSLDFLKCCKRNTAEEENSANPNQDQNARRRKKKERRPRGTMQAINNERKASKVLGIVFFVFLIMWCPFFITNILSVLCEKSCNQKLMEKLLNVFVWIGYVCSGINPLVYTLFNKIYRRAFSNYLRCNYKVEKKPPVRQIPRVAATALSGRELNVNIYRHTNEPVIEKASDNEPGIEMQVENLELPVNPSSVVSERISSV
Summary of the method: as §1

[10] = molecular target: serotoninergic 5-HT6 receptor (Homo sapiens, UniProt P50406); assay: Cellular functional assay, serotoninergic 5-HT6 receptor (agonism/antagonism); type: cell-based; conditions: for activation at 1 µM: read-out: 5-HT6-ag [%]; for inhibition at 1 µM: read-out: 5-HT6-antag. [%]
Description: as §2, §3

[11] = agonist effect, percent of control specific agonist response, compounds tested at 1×10^−6M
[12] = agonist effect, percent of control specific agonist response (300 nM dopamine for control); 1×10^−6 M; D3 (h), CHO cells; read-out: D3-ag [%]
[13] = HEK293; agonist effect, percent of control specific agonist response (3 μM dopamine for control); 1×10^−6 M; D2S (h), HEK-293 cells; read-out: D2-ag [%]
[14] = HEK293; read-out: D2-antag. [%]

Sequence of dopaminergic D2 receptor (P14416 whole entry): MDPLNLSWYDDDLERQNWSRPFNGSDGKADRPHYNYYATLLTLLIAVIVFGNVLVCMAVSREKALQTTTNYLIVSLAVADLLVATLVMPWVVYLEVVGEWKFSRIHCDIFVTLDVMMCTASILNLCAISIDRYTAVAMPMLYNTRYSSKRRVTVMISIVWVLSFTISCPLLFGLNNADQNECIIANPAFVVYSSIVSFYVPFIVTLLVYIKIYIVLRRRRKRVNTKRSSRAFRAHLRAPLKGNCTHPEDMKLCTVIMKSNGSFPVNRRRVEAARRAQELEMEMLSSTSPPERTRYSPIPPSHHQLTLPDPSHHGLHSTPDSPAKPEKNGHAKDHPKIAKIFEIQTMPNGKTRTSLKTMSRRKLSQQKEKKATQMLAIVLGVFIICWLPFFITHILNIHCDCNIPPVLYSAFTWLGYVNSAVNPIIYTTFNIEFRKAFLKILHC
T3 sequence (P20309 whole entry): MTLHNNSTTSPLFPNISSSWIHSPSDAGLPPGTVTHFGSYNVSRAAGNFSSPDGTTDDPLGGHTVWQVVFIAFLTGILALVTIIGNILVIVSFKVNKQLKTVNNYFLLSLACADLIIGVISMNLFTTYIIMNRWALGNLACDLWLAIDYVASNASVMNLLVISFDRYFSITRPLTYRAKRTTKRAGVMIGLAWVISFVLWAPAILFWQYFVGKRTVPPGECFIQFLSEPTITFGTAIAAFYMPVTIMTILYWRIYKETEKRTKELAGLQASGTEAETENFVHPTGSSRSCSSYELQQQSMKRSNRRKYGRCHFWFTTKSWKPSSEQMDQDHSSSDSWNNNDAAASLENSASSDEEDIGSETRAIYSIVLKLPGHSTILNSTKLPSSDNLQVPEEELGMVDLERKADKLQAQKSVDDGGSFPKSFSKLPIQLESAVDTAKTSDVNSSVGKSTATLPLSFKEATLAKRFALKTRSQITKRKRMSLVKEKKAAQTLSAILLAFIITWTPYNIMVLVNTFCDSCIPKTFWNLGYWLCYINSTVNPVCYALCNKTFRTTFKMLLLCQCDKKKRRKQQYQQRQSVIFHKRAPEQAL
T2 sequence (P35367 whole entry): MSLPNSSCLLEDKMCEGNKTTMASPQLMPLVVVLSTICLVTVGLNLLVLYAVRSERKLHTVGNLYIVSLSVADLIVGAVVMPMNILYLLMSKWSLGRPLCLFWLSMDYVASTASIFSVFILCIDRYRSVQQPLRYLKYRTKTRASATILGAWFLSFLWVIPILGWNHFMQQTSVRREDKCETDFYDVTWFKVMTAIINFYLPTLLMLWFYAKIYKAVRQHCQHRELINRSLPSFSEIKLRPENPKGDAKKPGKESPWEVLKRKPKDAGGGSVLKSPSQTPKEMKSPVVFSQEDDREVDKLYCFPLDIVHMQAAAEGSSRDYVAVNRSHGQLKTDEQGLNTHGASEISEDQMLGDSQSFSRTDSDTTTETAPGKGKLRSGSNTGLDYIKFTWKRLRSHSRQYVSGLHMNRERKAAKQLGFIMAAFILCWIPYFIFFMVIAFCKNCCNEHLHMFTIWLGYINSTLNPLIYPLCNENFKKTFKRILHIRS
Sequence of serotoninergic 5-HT2A receptor (P28223 whole entry): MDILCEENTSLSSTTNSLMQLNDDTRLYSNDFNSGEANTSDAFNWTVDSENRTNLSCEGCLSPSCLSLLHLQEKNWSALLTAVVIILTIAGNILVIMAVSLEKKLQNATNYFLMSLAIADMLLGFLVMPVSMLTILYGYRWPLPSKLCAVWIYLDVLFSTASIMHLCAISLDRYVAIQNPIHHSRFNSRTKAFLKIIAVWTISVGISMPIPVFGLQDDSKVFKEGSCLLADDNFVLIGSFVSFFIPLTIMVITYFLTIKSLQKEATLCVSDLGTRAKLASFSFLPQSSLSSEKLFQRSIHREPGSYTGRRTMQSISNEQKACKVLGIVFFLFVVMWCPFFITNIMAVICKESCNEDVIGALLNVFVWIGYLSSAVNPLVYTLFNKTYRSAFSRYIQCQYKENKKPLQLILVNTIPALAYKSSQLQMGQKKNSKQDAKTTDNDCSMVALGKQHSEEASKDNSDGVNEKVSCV
Sequence of serotoninergic 5-HT6 receptor (P50406 whole entry): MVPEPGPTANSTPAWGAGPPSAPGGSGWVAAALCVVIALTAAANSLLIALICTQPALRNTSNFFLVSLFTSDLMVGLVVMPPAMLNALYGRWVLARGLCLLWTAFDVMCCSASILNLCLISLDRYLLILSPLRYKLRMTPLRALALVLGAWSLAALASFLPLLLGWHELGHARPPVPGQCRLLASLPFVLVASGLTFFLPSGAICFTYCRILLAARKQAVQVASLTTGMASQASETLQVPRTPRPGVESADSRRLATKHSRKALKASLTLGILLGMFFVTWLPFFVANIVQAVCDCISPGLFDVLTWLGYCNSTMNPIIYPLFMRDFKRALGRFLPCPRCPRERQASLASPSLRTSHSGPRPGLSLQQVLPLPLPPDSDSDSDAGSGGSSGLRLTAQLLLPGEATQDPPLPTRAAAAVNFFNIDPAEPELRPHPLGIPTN
Sequence of dopaminergic D3 receptor (P35462 whole entry): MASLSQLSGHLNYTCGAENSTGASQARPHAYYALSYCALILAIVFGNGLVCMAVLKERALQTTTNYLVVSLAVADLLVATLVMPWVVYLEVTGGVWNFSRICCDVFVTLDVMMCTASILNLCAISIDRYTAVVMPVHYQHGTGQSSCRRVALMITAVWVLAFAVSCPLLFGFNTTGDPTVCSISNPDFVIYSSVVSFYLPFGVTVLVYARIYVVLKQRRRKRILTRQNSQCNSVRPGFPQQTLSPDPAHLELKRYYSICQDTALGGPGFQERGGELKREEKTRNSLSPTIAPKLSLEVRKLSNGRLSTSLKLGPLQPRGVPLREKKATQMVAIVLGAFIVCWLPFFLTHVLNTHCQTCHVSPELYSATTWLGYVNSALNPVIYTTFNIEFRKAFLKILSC
Sequence of serotoninergic 5-HT7 receptor (P34969 whole entry): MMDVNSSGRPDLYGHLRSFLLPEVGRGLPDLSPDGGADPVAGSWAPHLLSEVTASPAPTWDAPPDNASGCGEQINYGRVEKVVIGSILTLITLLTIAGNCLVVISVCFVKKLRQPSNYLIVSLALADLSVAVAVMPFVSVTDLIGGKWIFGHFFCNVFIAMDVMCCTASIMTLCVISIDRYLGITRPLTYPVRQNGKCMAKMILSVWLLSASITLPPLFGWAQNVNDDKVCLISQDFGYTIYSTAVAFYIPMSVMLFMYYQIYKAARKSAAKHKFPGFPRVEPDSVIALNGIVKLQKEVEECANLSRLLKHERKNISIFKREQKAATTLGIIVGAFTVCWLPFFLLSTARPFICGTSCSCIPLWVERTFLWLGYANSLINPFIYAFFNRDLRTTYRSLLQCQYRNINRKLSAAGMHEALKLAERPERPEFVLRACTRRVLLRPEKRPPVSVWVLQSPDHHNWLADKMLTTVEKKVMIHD

Row | Structure (SMILES) | inhibition at 1 µM [1] [%] | inhibition at 1 µM [2] [%] | inhibition at 1 µM [4] [%] | inhibition at 1 µM [5] [%] | activation at 1 µM [6] [%] | inhibition at 1 µM [6] [%] | inhibition at 1 µM [7] [%] | inhibition at 1 µM [9] [%] | inhibition at 1 µM [10] [%] | activation at 1 µM [1, 11] [%] | inhibition at 1 µM ([3]; CHO; read-out: D3-antag. [%]) [%] | activation at 1 µM [3, 12] [%] | activation at 1 µM [7, 11] [%] | activation at 1 µM [8, 13] [%] | inhibition at 1 µM [8, 14] [%] | activation at 1 µM [10, 11] [%] | other results
1 | O=S(=O)(NCCCCN1CCN(c2nsc3ccccc23)CC1)c1ccc2ccccc2c1 [Compound 2, N-(4-(4-(1,2-Benzothiazol-3-yl)piperazin-1-yl)butyl)naphthalene-2-sulphonamide] | 100 | 97 | 94 | 17 | 2 | 102 | 48 | 89 | 28 | – | – | – | – | – | – | – | activation at 1 µM [1]: 0%; activation at 1 µM ([3]; CHO, read-out: D3-ag [%]): -15%; inhibition at 1 µM ([3]; CHO, read-out: D3-antag. [%]): 81%; activation at 1 µM [7]: -1%; activation at 1 µM ([8]; HEK293, read-out: D2-ag [%]): 2%; inhibition at 1 µM ([8]; HEK293, read-out: D2-antag. [%]): 97%; activation at 1 µM [10]: 2%
2 | O=S(=O)(NCCCCN1CCN(c2noc3ccccc23)CC1)c1cc2ccc(Cl)cc2s1 [Compound 288, N-[4-[4-(1,2-Benzoxazol-3-yl)piperazin-1-yl]butyl]-6-chlorobenzothiophene-2-sulphonamide] | 97 | 100 | 94 | 3 | -2 | 97 | 57 | 32 | 74 | 0 | 72 | 0 | 0 | 5 | 79 | 0 | –
3 | O=S(=O)(NCCCCN1CCN(c2nsc3ccccc23)CC1)c1ccc2cc(Cl)ccc2c1 [Compound 61, N-[4-[4-(1,2-Benzothiazol-3-yl)piperazin-1-yl]butyl]-6-chloro-naphthalene-2-sulphonamide] | 100 | 100 | 97 | 5 | 0 | 97 | 76 | 95 | 72 | 0 | 45 | 4 | 1 | 4 | 77 | -2 | –
4 | O=S(=O)(NCCCCN1CCC(c2noc3cc(F)ccc23)CC1)c1ccc(Br)cc1 [Compound 298, 4-Bromo-N-[4-[4-(6-fluoro-1,2-benzoxazol-3-yl)piperidin-1-yl]butyl]benzenesulphonamide] | 100 | 100 | 90 | 19 | -1 | 99 | 90 | 52 | 89 | 1 | 99 | -8 | 30 | 12 | 84 | 0 | –
5 | Cc1c(S(=O)(=O)NCCCCN2CCC(c3noc4cc(F)ccc34)CC2)sc2ccc(F)cc12 [Compound 101, 5-Fluoro-N-[4-[4-(6-fluoro-1,2-benzoxazol-3-yl)piperidin-1-yl]butyl]-3-methylbenzothiophene-2-sulphonamide] | 100 | 98 | 97 | 14 | -1 | 100 | 94 | 80 | 103 | 0 | 112 | -18 | 33 | 6 | 85 | -2 | –
6 | O=S(=O)(NCCCCN1CCC(c2noc3cc(F)ccc23)CC1)c1ccc2cc(Cl)ccc2c1 [Compound 97, 6-Chloro-N-[4-[4-(6-fluoro-1,2-benzoxazol-3-yl)piperidin-1-yl]butyl]naphthalene-2-sulphonamide] | 99 | 93 | 91 | 16 | -3 | 102 | 57 | 89 | 95 | 0 | 87 | -23 | 3 | 4 | 95 | -2 | –
7 | Cc1c(S(=O)(=O)NCCCN2CCC(c3noc4cc(F)ccc34)CC2)sc2ccc(F)cc12 [Compound 102, 5-Fluoro-N-[3-[4-(6-fluoro-1,2-benzoxazol-3-yl)piperidin-1-yl]propyl]-3-methylbenzothiophene-2-sulphonamide] | 100 | 97 | 94 | 18 | -2 | 99 | 48 | 76 | 82 | 0 | 83 | 4 | 0 | 1 | 85 | -1 | –
8 | O=S(=O)(NCCCN1CCC(c2noc3cc(F)ccc23)CC1)c1ccc(F)c(Cl)c1 [Compound 331, 3-Chloro-4-fluoro-N-[3-[4-(6-fluoro-1,2-benzoxazol-3-yl)piperidin-1-yl]propyl]benzenesulphonamide] | 100 | 99 | 97 | 10 | -1 | 98 | 85 | 82 | 98 | 1 | 114 | -15 | 2 | 4 | 87 | -1 | –
